According to paper PMC4887073, “Investigating the Role of Loop C Hydrophilic Residue ‘T244’ in the Binding Site of ρ1 GABAC Receptors via Site Mutation and Partial Agonism” (PLoS ONE, 2016):
Where two headings read alike, the source gives them in different places. Values belong to the compound of their own block, whether it stands above or below them.

Columns and labels:
[1] = molecular target: T1, human ρ1 GABAC WT receptors (Homo sapiens, UniProt P24046); assay: Two-electrode voltage-clamp electrophysiology, Xenopus oocytes expressing ρ1 GABAC WT receptors; assay type: cell-based; conditions: for additive effect on GABA EC50 response (GABA EC50 response set to 100%): co-applied with GABA EC50; for Emax: read-out: efficacy relative to the GABA maximal response, ligand applied alone
T1 construct: expressed in transfected cells; host or cells: Xenopus laevis oocytes injected with cRNA
T1 sequence (P24046 22-479): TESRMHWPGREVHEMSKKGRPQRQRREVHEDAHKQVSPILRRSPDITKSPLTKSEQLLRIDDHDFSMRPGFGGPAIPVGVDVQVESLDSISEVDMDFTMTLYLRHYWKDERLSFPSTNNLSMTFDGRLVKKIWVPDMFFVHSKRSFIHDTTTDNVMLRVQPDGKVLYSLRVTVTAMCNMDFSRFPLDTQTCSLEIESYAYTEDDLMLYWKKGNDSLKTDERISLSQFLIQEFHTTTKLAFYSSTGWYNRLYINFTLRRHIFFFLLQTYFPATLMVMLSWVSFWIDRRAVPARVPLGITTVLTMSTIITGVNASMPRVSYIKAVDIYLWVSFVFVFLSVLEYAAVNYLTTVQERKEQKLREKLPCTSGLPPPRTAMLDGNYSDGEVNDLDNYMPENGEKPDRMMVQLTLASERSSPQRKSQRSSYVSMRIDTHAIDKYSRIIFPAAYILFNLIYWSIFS
Protocol: Human ρ1 cDNA subcloned into pcDNA1.1 (Invitrogen, San Diego, CA, USA) was kindly provided by Dr. George Uh1 (National Institute for Drug Abuse, Baltimore, MD, USA).
(§1) ρ1 GABAC WT and mutant plasmids DNA were linearized by incubation with Xba1. ρ1 WT and mutant cRNA were synthesized using the T7 Transcription mMESSAGE mMACHINE Kit (Ambion, Austin, TX, USA) following the procedure described by the manufacture. The quantity and quality of synthesized CRNA was determined by absorbance at 260–280 nm using Nanodrop Spectrophotometer (Thermo Scientific, Wilmington, DE, USA). The purity of synthesized cRNA was confirmed by agarose gel electrophoresis (0.9%) using the GelDoc 1000 (Bio-Rad Laboratories, Hercules, CA USA).
(§2) A microprocessor-controlled micropipette puller (PUL-100, World Precision Instruments, Inc. FL, USA) was used to make micropipettes then RNA pulled up into the micropipette by a positive-displacement using micro-injector (Nanoliter micro-injector, World Precision Instruments, Inc. FL, USA). Oocytes were sorted and healthy ones were injected with 35–50 ng of ρ cRNA unless otherwise mentioned.
(§3) The injected oocytes were incubated for between two and four days after injection with desired RNA. Two-electrode voltage clamp instrument; Geneclamp 500 amplifier (Axon Instrument, Sydney, NSW, Australia) and Chart version 5.5.6 was used to measure the various activities at the receptors expressed by these oocytes. The recording microelectrodes were prepared by pulling using PUL-100 micropipette puller (World precision Instruments, Inc. FL, USA) and filled with 3 M KCl.
(§4) Dose response curves were generated using GraphPad PRISM 5.02 (GraphPad Software San Diego, CA).
(§5) The inhibitory concentration curves were generated using GraphPad PRISM 5.02 and IC50 values were calculated using Eq 2.

[2] = molecular target: T2, ρ1 GABAC T244S mutant receptors (Homo sapiens, UniProt P24046, T265S); assay: Two-electrode voltage-clamp electrophysiology, Xenopus oocytes expressing ρ1 T244S mutant receptors; assay type: cell-based; conditions: for effect of T244S mutation on antagonist potency: ρ1 T244S compared to WT
T2 construct: expressed in transfected cells; host or cells: Xenopus laevis oocytes injected with cRNA
T2 sequence (P24046 22-479 T265S): as the sequence (P24046 22-479) above, with T244S counted along it
Protocol: (§6) Pairs of the complementary mutagenic oligonucleotide primers were first designed to introduce single point mutations at human ρ1 GABAC subunit using UniProt. Primers were made by life technologies (Life Technologies^TM Australia Pty Ltd).
(§7) Site-directed mutagenesis was performed using QuikChange II site-directed mutagenesis kit as described by the manufacturer (Stratagene).
as §1, §2, §3, §4, §5

[3] = molecular target: T3, ρ1 GABAC T244A mutant receptors (Homo sapiens, UniProt P24046, T265A); assay: Two-electrode voltage-clamp electrophysiology, Xenopus oocytes expressing ρ1 T244A mutant receptors; assay type: cell-based
T3 construct: expressed in transfected cells; host or cells: Xenopus laevis oocytes injected with cRNA (raised to 300 ng/μl)
T3 sequence (P24046 22-479 T265A): as the sequence (P24046 22-479) above, with T244A counted along it
Protocol: as §6, §7, §1, §2, §3, §4

[4] = molecular target: T2, ρ1 GABAC T244S mutant receptors; conditions: agonist effects eliminated; cited from earlier work
[5] = molecular target: T4, ρ1 GABAC T244C mutant receptors (Homo sapiens, UniProt P24046, T265C); assay: Two-electrode voltage-clamp electrophysiology, Xenopus oocytes expressing ρ1 T244C mutant receptors; assay type: cell-based
T4 construct: expressed in transfected cells; host or cells: Xenopus laevis oocytes injected with cRNA (raised to 300 ng/μl)
T4 sequence (P24046 22-479 T265C): as the sequence (P24046 22-479) above, with T244C counted along it
Protocol: as §6, §7, §1, §2, §3
Current responses were normalized to the maximum GABA-activated current (or other ligand which is stated as required) and expressed as a percentage, which was fitted by least squares to Hill equation (Eq 1). Dose response curves were generated using GraphPad PRISM 5.02 (GraphPad Software San Diego, CA).
GABA was first tested on all mutant receptors in order to determine the functionality of these receptors.

[6] = molecular target: T1, human ρ1 GABAC WT receptors; parameters: method as in PMID 8386310; conditions: agonist applied alone; cited from earlier work
[7] = read-out: efficacy relative to the GABA maximal response, ρ1 T244S, ligand applied alone
[8] = high GABA concentrations, 300 ng/μl RNA

- agonist character ([1]; ρ1 WT, applied alone): weak partial agonists
- direct activation of receptors ([1]; ρ1 WT, at mM concentrations, applied alone): 25%
- additive effect on GABA EC50 response (GABA EC50 response set to 100%) ([1]; ρ1 WT): 180%
- direct activation of receptors ([2]; ρ1 T244S, at mM concentrations, applied alone): 2%
- additive effect on GABA EC50 response (GABA EC50 response set to 100%) ([2]; ρ1 T244S, co-applied with GABA EC50): 145%
- maximum efficacy relative to the GABA maximal response at 30 mM ([2]; ρ1 T244S, ligand applied alone): 8%
- efficacy compared with GABA [3]: less efficacious than GABA
Structure (SMILES): NCC(=O)O [glycine]

Structure (SMILES): NCCC(=O)O [β-alanine]
- IC50 [1]: 120 µM
- weak additive effect on GABA EC50 response ([1]; xenopus oocytes): 125%
- agonist character ([1]; ρ1 WT, applied alone): weak partial agonists
- inhibition of GABA EC50 ([1]; ρ1 WT, concentrations greater than 100 μM): 60%
- IC50 [2]: 1000 µM
- Emax ([2]; read-out: maximum efficacy relative to the GABA maximal response at 30 mM, ρ1 T244S, ligand applied alone): 5%
- weak additive effect on GABA EC50 response ([2]; xenopus oocytes): 115%
- fold increase of IC50 ([2]; ρ1 T244S compared to ρ1 WT, against GABA EC50): 8 fold
- inhibition of GABA EC50 ([2]; ρ1 T244S, concentrations greater than 100 μM): 60%
- EC50 ([3]; 300 ng/μl mutant RNA injected): 1500 µM
- efficacy compared with GABA ([3]; 30 mM concentration): approximately two times more efficacious than GABA

Structure (SMILES): Oc1noc2c1CCNC2 [THIP, 4,5,6,7-tetrahydroisoxazolo[5,4-c]pyridin-3-ol]
- effect of T244S mutation on antagonist potency [2]: no effect

- EC50 ([1]; agonist applied alone, ρ1 WT): 95 µM
- Emax ([1]; ρ1 WT): 60%
- additive effect, % of GABA EC50 efficacy ([1]; ρ1 WT, co-applied with GABA EC50, at 100 μM ligand): 150%
- Emax [2, 7]: 2%
- magnitude of response, % of GABA IMAX ([2]; ρ1 T244S, 300 μM applied alone): less than 2%
- agonist activity ([2]; ρ1 T244S, applied alone, minimal response at 300 μM): almost inactive
- enhancement of the GABA EC50 effect ([2]; ρ1 T244S, co-applied with GABA EC50, at 100 μM ligand): ~20%
Structure (SMILES): NC/C=C\C(=O)O [CACA]

Structure (SMILES): NCc1cc(=O)[nH]o1 [muscimol]
- efficacy compared with GABA [3]: less efficacious than GABA
- mode of action at mutant receptors [4]: acted only as competitive antagonists

- IC50 [1]: 37 µM
- agonist character ([1]; ρ1 WT, applied alone): weak partial agonists
- IC50 [2]: 17 µM
- efficacy compared with GABA [3]: less efficacious than GABA
Structure (SMILES): NCCCCC(=O)O [5-aminovaleric acid]

- effect on β-alanine response ([3]; 30 mM co-applied with 30 mM β-alanine): moderately inhibits
- sensitivity of receptors to GABA ([3]; GABA 30mM, 50–100 ng/μl RNA): non-functional or insensitive
- sensitivity of receptors to GABA [3, 8]: weakly responsive
- response ([5]; 30 mM, five times the RNA normally injected): very weak response
- sensitivity of receptors to GABA ([5]; GABA 30mM, 50–100 ng/μl RNA): non-functional or insensitive
- sensitivity of receptors to GABA [5, 8]: weakly responsive
Structure (SMILES): NCCCC(=O)O [GABA, γ-aminobutyric acid]

Structure (SMILES): CP(=O)(O)C1=CCNCC1 [TPMPA]
- IC50 ([1]; ρ1 WT): 2.3 µM
- effect of T244S mutation on antagonist potency [2]: no effect
- effect when applied alone [3]: no effect
- effect on β-alanine response ([3]; 1 mM against β-alanine response (30 mM)): weakly antagonizes

- activation ([1]; ρ1 WT, applied alone): very weak efficacy and potency
- effect on GABA EC50 response ([1]; ρ1 WT, co-applied with GABA EC50, concentrations below 100 μM): weak additive effects
- effect on GABA EC50 response ([1]; ρ1 WT, co-applied with GABA EC50, concentrations of 100 μM and above): weakly antagonizes
- potency and efficacy compared with GABA ([5]; reversible responses): greater potency and efficacy than GABA
Structure (SMILES): CS(=O)(=O)SCCN [MTSEA, 2-aminoethylmethane thiosulfonate]

- Emax ([1]; ρ1 WT): 95%
- EC50 ([2]; agonist applied alone, ρ1 T244S): 14 µM
- Emax [2, 7]: 110%
- fold decrease in potency/activity ([2]; ρ1 T244S compared to ρ1 WT): 25 fold
- efficacy compared with GABA [3]: less efficacious than GABA
Structure (SMILES): NC/C=C/C(=O)O [TACA, trans-aminocrotonic acid]

- Emax ([1]; ρ1 WT): 45%
- additive effect on GABA EC50 response (GABA EC50 response set to 100%) ([1]; ρ1 WT): 135%
- IC50 [2]: 25.3 µM
Structure (SMILES): O=C(O)C1=CCNCC1 [isoguvacine]
- EC50 [6]: 200 µM

Structure (SMILES): O=C(O)Cc1c[nH]cn1 [imidazole-4-acetic acid]
- mode of action at mutant receptors [4]: acted only as competitive antagonists
